Measurements: patent publication US8883798B2, “Pyrimidine compounds inhibiting the formation of nitric oxide and prostaglandin E2, method of production thereof and use thereof” (Ustav Organicke Chemie a Biochemie Akademie Ved CR, V.V.I., priority 2011, dated 2014)

How the values were obtained:
[1] = system: production of nitric oxide (NO); test: Production of nitric oxide (NO) in cultures of mouse peritoneal cells stimulated with IFN-γ plus LPS (Griess reagent); type: cell-based, mice; details: substance 50 μmol·l^−1, IFN-g plus LPS, 24 h
Procedure: (§1) Under in vitro conditions, the effect of the pyrimidine compounds according to this invention was tested in terms of the production of nitric oxide (NO) and in terms of the production of prostaglandin E2 (PGE2) in cultures of the peritoneal cells of mice.
NO is a product of the metabolism of L-arginine, quickly changes to […], which are then measured using the Griess reagent system. Under normal conditions, the production of NO is practically zero. It only occurs after some stimulation. In these experiments, interferon-gamma (IFN-γ) and bacterial lipopolysacharide (LPS) were used as stimulators. The values of NO induced in this way fluctuated in the individual experiments in a range from 52 to 89 μmol·l^−1; for the purposes of comparison between the experiments they were considered as 100%. The production of NO after the application of the substances was expressed in percentage with respect to the control values. (The lower the value, the higher the inhibition effect of the substances on NO production.) IC50 are the concentrations of the substances reducing the production of NO by 50% with respect to the controls.
(§2) Experiments were performed on mice peritoneal cells C57BL/6 (Charles River, Germany—AnLabu).
(§3) NO production was induced using IFN-g (5000 pg/mL) plus LPS (100 pg/mL); evaluated (Griess reagent) after 24 h of the cell cultivation (2×10^6/mL). PGE2 was induced using LPS (10 ng/mL); evaluated (ELISA) following 6 h cultivation of cells (3×10^6/mL). Cell longevity was evaluated using WST-1 (tetrazolium salt), following 24 h cultivation of cells (1×10^6/mL). The values mentioned in the table represent the effects of the substances tested in a concentration of 50 μmol·l^−1.

[2] = system: production of prostaglandin E2 (PGE2); test: Production of prostaglandin E2 (PGE2) in cultures of mouse peritoneal cells stimulated with LPS (ELISA kit); type: cell-based, mice; details: for Production of prostaglandins IC50 (μmol · 1^−1) average value and range of values: Table 3B, 6 h
Procedure: as §1
The influence on the production of prostaglandin E2 (PGE2) in vitro caused by the activity of the pyrimidine compounds according to the submitted invention was determined in cultures of the peritoneal cells of mice using a commercial kit (R&DSystems). The concentrations of PGE2 after lipopolysacharide (LPS) stimulation reached in the individual experiments values in a range of 22 to 91 ng·ml^−1 and for the purposes of comparison between the experiments were considered as 100%. The influence of the substances on the production of PGE2 was evaluated in percentage with respect to the control values.
as §2, §3

peritoneal cells of mice = test: Cell viability of mouse peritoneal cells (WST-1 kit); type: cell-based; details: substance 50 μmol·l^−1, 24 h; for Cell viabilities in % of the controls: Table 3B; for Cell viability in % of the controls: Table 3A
Procedure: Cell viability was determined in the standard way using a WST-1 kit (Roche). The values of the viability of the control cells were for the purposes of comparison between experiments considered as 100%. The influence of the substances on the longevity of the cells was evaluated in percentage with respect to the control values.
as §2, §3

Row | Structure (SMILES) | Production of nitric oxide in % of the controls ([1]; Table 3B) | Production of prostaglandins IC50 (μmol · 1^−1) average value and range of values [2] | Cell viabilities in % of the controls (peritoneal cells of mice) | Production of nitric oxide in % of the controls ([1]; Table 3A) | Cell viability in % of the controls (peritoneal cells of mice) | Production of prostaglandins in % of the controls ([2]; Table 3A, substance 50 μmol·l^−1, 6 h)
1 | CCCCc1c(-c2ccsc2)nc(N)nc1-c1cccc2ccccc12 [Substance 140] | 30.16 ± 2.96; n = 4 % of the controls | 40.66 ± 6.87; n = 2 μmol · 1^−1 | 94.34 ± 2.62; n = 4 % of the controls |  |  | 
2 | CC(C)c1c(Cl)nc(N)nc1Cl [Substance 29] |  |  |  | 36.97 ± 8.22 % of the controls | 91.18 ± 9.90 % of the controls | 
3 | CCCCc1c(Cl)nc(N)nc1-c1ccc(F)cc1 [Substance 71] | 37.07 ± 6.31; n = 4 % of the controls | 26.66 ± 11.71; n = 4 μmol · 1^−1 | 94.59 ± 7.75; n = 4 % of the controls |  |  | 
4 | CCCCc1c(-c2cccnc2)nc(N)nc1-c1cc2ccccc2s1 [Substance 128] | 64.91 ± 6.60 n = 4 % of the controls | 31.10 ± 10.43; n = 4 μmol · 1^−1 | 79.62 ± 4.12; n = 8 % of the controls |  |  | 
5 | CCCCc1c(-c2ccncc2)nc(N)nc1-c1cc2ccccc2s1 [Substance 129] | 63.94 ± 1.84 n = 4 % of the controls | 65.97 ± 25.34; n = 2 μmol · 1^−1 | 85.12 ± 0.76; n = 8 % of the controls |  |  | 
6 | CCCc1c(Cl)nc(N=CN(C)C)nc1Cl [Substance 15] |  |  |  | 8.42 ± 4.75 % of the controls | 109.35 ± 8.88 % of the controls | 14.76 ± 0.52 % of the controls
7 | CCCCc1c(-c2ccoc2)nc(N)nc1-c1cc2ccccc2o1 [Substance 123] | 11.15 ± 2.99; n = 6 % of the controls | 35.10 ± 14.56; n = 4 μmol · 1^−1 | 42.62 ± 11.49; n = 12 % of the controls |  |  | 
8 | CCCCc1c(-c2cc3ccccc3o2)nc(N)nc1-c1cc2ccccc2o1 [Substance 125] | 67.76 ± 6.80; n = 6 % of the controls | 73.07 ± 1.91; n = 2 μmol · 1^−1 | 76.82 ± 8.89; n = 8 % of the controls |  |  | 
9 | CCCCc1c(-c2ccc(OC)cc2)nc(N)nc1-c1cc2ccccc2o1 [Substance 117] | 89.91 ± 4.02; n = 6 % of the controls | 64.65 ± 4.88; n = 2 μmol · 1^−1 | 75.92 ± 9.72; n = 8 % of the controls |  |  | 
10 | CCCCc1c(Cl)nc(N)nc1-c1cccnc1 [Substance 43] |  |  |  | 58.68 ± 0.92 % of the controls | 166.77 ± 22.51 % of the controls | 
11 | CCCCc1c(-c2ccccc2)nc(N)nc1-c1ccccc1 [Substance 45] |  |  |  | 73.29 ± 1.40 % of the controls | 297.33 ± 23.17 % of the controls | 
12 | Nc1nc(Cl)c(-c2ccccc2)c(Cl)n1 [Substance 31] |  |  |  | 36.11 ± 8.38 % of the controls | 82.53 ± 8.73 % of the controls | 
13 | CCCCc1c(-c2cccnc2)nc(N)nc1-c1cccnc1 [Substance 81] | 50.07 ± 3.04; n = 6 % of the controls |  | 82.21 ± 7.34; n = 8 % of the controls |  |  | 
14 | CCCCc1c(Cl)nc(N)nc1-c1cc2ccccc2o1 [Substance 44] |  |  |  | 62.62 ± 0.19 % of the controls | 147.78 ± 5.90 % of the controls | 
15 | CCCCc1c(Cl)nc(N(C)C)nc1Cl [Substance 63] |  |  |  | 64.97 ± 2.92 % of the controls |  | 
16 | Nc1nc(I)c(Cc2ccccc2)c(I)n1 [Substance 38] |  |  |  | 34.80 ± 0.31 % of the controls | 78.60 ± 5.33 % of the controls | 
17 | CCCCc1c(Cl)nc(N)nc1-c1ccncc1 [Substance 85] | 49.34 ± 4.20; n = 4 % of the controls |  | 87.62 ± 6.58; n = 4 % of the controls |  |  | 
18 | CCC(C)c1c(Cl)nc(N)nc1I (centres unmarked) [Substance 37] |  |  |  | 6.67 ± 5.15 % of the controls | 49.11 ± 3.29 % of the controls | 
19 | CCCCCCc1c(Cl)nc(N=CN(C)C)nc1Cl [Substance 22] |  |  |  | 61.34 ± 3.91 % of the controls |  | 
